≈ marks a conversion by molar mass, not a printed value.
Columns and labels:
[1] = Kinetic solubility assay; type: physicochemical; conditions: pH 7.4, aqueous buffer, kinetic from dmso stock; phosphate buffer pH7.4, 1% DMSO, 1 hour at room temperature
Description: This protocol is designed to measure kinetic solubility of test articles in assay buffer. The study will be conducted in accordance with International Bioethical Standards “World Medical Association Declaration of Helsinki.
100 Phosphate Buffer, pH7.4
• 1) Prepare stock solutions for test compounds in DMSO at 10 mM concentration. Dilute the stock solutions into 100 mM phosphate buffer in triplicate in 1.5 ml Eppendorf tubes to a target concentration of 100 µM with a final DMSO concentration of 1%: • 2) 4 µL of 10 mM DMSO stock solution into 396 µL of assay buffer. • 3) Keep the sample tubes shaken (1000 rpm) for 1 hour at room temperature. • 4) Centrifuge sample tubes for 10 min at 12000 rpm (Eppendrof-5424, about 13500 g) to precipitate un-dissolved particles. • 5) Transfer the supernatants to new tubes with different dilutions (undiluted, 10-fold diluted, 100-fold diluted, or other fold diluted). • 6) Add 5 µL of working solution and diluted supernatants to 95 µL ACN (containing IS). Analyze the samples by LC-MS-MS against calibration curve.
A standard calibration curve is prepared in Methanol/H2O (1:1).

[2] = system: Human Pan T cells; assay: IL2 & IFN-γ released by human pan T cell (ELISA); type: cell-based; conditions: for EC50 / Human Pan T cells EC2x (nM, IL-2): IL-2, anti-CD3/CD28 stimulation, 48 hours; for Human Pan T cells EC2x (nM, IL-2): concentration giving 200% response (2 folds) over DMSO control; for Max fold change: IL-2 response over DMSO control; for Max fold change / efficacy in inducing IL-2 production: human pan T cells
Excerpt: This example is an assay method that can be used to determine compound effects on IL2 & IFN-γ release using pan T cells and ELISA assay format.
Procedures for Pan T isolation and Reagent preparation (Day 0): • 1. Cell Growth Medium: • RPMI1640: ATCC, Cat# 30-2001 • 10% FBS: Gibco, Cat# 10099141 • 1% Pen-Strep: Gibco, Cat # 15140122 • 1% Non-essential amino: Gibco, Cat #11140050 • Beta- Mercaptoethanol: Gibco, Cat#21985023 • 2. Pan T isolation buffer preparation: • Prepare a solution containing phosphate-buffered saline (PBS), pH 7.2, 0.5% bovine serum albumin (BSA), and 2 mM EDTA by diluting MACS® BSA Stock Solution (# 130-091-376) 20 times with autoMACS® Rinsing Solution. Keep buffer at 4° C. Degas buffer before use, as air bubbles could block the column.
• 3. Thawing of frozen PBMC • 1) Pre-heat medium at 37° C. water bath. • 2) Rapidly thaw cells in 37° C. water bath. • 3) Add the pre-warmed medium into 15 mL tube. Transfer cells to the tube. • 4) 300 × g centrifuge for 8 min. (centrifuge increase 0, decrease 0). • 5) Wash the PBMC using Rinsing buffer. • 6) Centrifuge PBMC at 300 × g for 8 min, wash it twice (centrifuge increase 9, decrease 1). • 7) Resuspend the cells with Pan T cells isolation buffer and count cells number. • 4. Pan T cells isolation: • Cell staining with microbead cocktail • 1) Prepare cells and determine cell number. Filter cells by 70 µm cell strainer. • 2) Resuspend cell pellet in 40 µL of buffer per 10^7 total cells. • 3) Add 10 µL of Pan T Cell Biotin-Antibody Cocktail per 10^7 total cells. • 4) Mix well and incubate for 10 minutes in the refrigerator (ice). • 5) Add 30 µL of buffer per 10^7 total cells. • 6) Add 20 µL of Pan T Cell MicroBead Cocktail per 10^7 total cells. • 7) Mix well and incubate for 15 minutes in the refrigerator (ice). • 8) Proceed to subsequent magnetic cell separation.
Subsequent manual cell separation: • 1) Place LS Column in the magnetic field of a suitable MACS Separator. For details refer to the respective MACS Column data sheet. • 2) Prepare column by rinsing with 3 mL of buffer. • 3) Apply cell suspension onto the column. Collect flow-through, which represents the enriched T cells. • 4) Wash column with 5 mL of buffer. Collect unlabeled cells that pass through, representing the enriched T cells.
Reminder: Always wait until the column reservoir is empty before proceeding to the next step. • 5. Pan T cell FACS: • 1) Take out 50 µL of PBMC and Pan T cells to FACS tubes respectively. • 2) Incubate cells with anti-human CD3/CD4/CD8 antibodies (1 µL/1 µL/1 µL /tube) for 20 min at 4° C. For unstained control, incubate cells with FACS staining buffer. • 3) Wash 2 times with cold staining buffer (PBS with 0.2%BSA and 1 mM EDTA). • 4) Run FACS. Gate CD3^+, CD3^+CD4^+, and CD3^+CD8^+ population for % analysis. • 5) If the purity of Pan T cells is higher than 90%, dilute cell suspension to 1 million cells/mL with the appropriate volume of Cell Culture Media. • 6) Dispense the cell suspension into a sterile, disposable reservoir for future use.
Procedures for preparation of compounds and anti-human CD3/CD28 (Day 0): • 1. Compound preparation • Compound serial dilution (source plate 1000×) • Compounds are solubilized in 100% DMSO to a concentration of 10 mM. Then they were 3-fold serially diluted to 8-point doses. • 4× Compound dose preparation (inter plate: Corning-3599): • Prepare 4× compound solution in culture medium. Pipet up and down. For the ZPE control, prepare 0.4% DMSO (4×) in culture medium. For the HPE control, prepare 0.4 µM of RGT003-026 (4×) in culture medium. • 2. Anti-human CD3 (stock conc. 6.76 mg/ml): stored at 4° C. • 1) Dilute anti-human CD3 with PBS to final conc. of 0.5 µg/mL. • 2) Add 50 µL /well of CD3 to each well, except for the positive and negative control wells. […] Rinse each well twice with 200 µL of sterile PBS each time. • 3. […]

| SMILES | solubility kinetic at 1 h [1] [µM] | EC50 ([2]; Homo sapiens, T-cell) [nM] | EC50 [2] [nM] | Human Pan T cells EC2x (nM, IL-2) [2] | Max fold change [2] | efficacy in inducing IL-2 production [2] |
| --- | --- | --- | --- | --- | --- | --- |
| COc1cc2c(cc1Nc1ncc(Cl)c(N3CC(CC(=O)O)c4ccccc43)n1)CN(C)CC2 (stereo not drawn) [Compound 8, reference compound] | 62.1 (≈ 29.8 µg/mL) | 275 |  | 240 (N = 2) nM | 3.29 (N = 2) |  |
| COc1cc2c(cc1Nc1ncc(Cl)c(N3CC(C)(CC(=O)O)c4ccc(F)cc43)n1)CN(C)CC2 (stereo not drawn) [Compound 10, reference compound] | 56.2 (≈ 28.8 µg/mL) | 17.4 |  | 15.6 (N = 5) nM | 3.05 (N = 5) |  |
| CN1CCc2cc(F)c(Nc3ncc(Cl)c(N4C[C@](C)(CC(=O)O)c5ccccc54)n3)cc2C1 (single isomer, unassigned) [Example 5, (R)-2-[1-[5-chloro-2-[(6-fluoro-2-methyl-3,4-dihydro-1H-isoquinolin-7-yl)amino]pyrimidin-4-yl]-3-methyl-indolin-3-yl]acetic acid or (S)-2-[1-[5-chloro-2-[(6-fluoro-2-methyl-3,4-dihydro-1H-isoquinolin-7-yl)amino]pyrimidin-4-yl]-3-methyl-indolin-3-yl]acetic acid] |  |  | 17.4 | 7.5 nM | 3.88 | good efficacy |

The remaining compounds from weak to strong by EC50 ([2]; Homo sapiens, T-cell), led by results:

| solubility kinetic at 1 h [1] [µM] | EC50 ([2]; Homo sapiens, T-cell) [nM] | EC50 [2] [nM] | SMILES | Human Pan T cells EC2x (nM, IL-2) [2] | Max fold change [2] | efficacy in inducing IL-2 production [2] |
| --- | --- | --- | --- | --- | --- | --- |
| 7.71 (≈ 3.59 µg/mL) | 278 |  | COc1cc2c(cc1Nc1ncc(Cl)c(N3CC(C(=O)O)c4ccccc43)n1)CN(C)CC2 (stereo not drawn) [Compound 7, reference compound] | 338 (N = 6) nM | 3.2 (N = 6) |  |
| 1.5 (≈ 0.741 µg/mL) | 50 |  | COc1cc2c(cc1Nc1ncc(Cl)c(N3CC(C)(CC(=O)O)c4ccccc43)n1)CN(C)CC2 (stereo not drawn) [Example 1, 2-(1-(5-chloro-2-((6-methoxy-2-methyl-1,2,3,4-tetrahydroisoquinolin-7-yl)amino)pyrimidin-4-yl)-3-methylindolin-3-yl)acetic acid] | 28 (N = 5) nM | 3.98 (N = 5) | good efficacy |
| 46.7 (≈ 22.5 µg/mL) | 31.5 |  | CN1CCc2cc(F)c(Nc3ncc(Cl)c(N4CC(C)(CC(=O)O)c5ccccc54)n3)cc2C1 (stereo not drawn) [Example 4, 2-(1-(5-chloro-2-((6-fluoro-2-methyl-1,2,3,4-tetrahydroisoquinolin-7-yl)amino)pyrimidin-4-yl)-3-methylindolin-3-yl)acetic acid] | 20.5 (N = 2) nM | 3.84 (N = 2) | good efficacy |
|  | 16.2 |  | COc1cc2c(cc1Nc1ncc(Cl)c(N3CC(C)(CC(=O)O)c4ccccc43)n1)CN(C)CC2 (single isomer, unassigned) [Example 2, (R)-2-(1-(5-chloro-2-((6-methoxy-2-methyl-1,2,3,4-tetrahydroisoquinolin-7-yl)amino)pyrimidin-4-yl)-3-methylindolin-3-yl)acetic acid or (S)-2-(1-(5-chloro-2-((6-methoxy-2-methyl-1,2,3,4-tetrahydroisoquinolin-7-yl)amino)pyrimidin-4-yl)-3-methylindolin-3-yl)acetic acid] | 12.5 (N = 10) nM | 3.2 (N = 10) | good efficacy |

From US20230339896A1, “HPK1 INHIBITORS AND USES THEREOF” (QILU REGOR THERAPEUTICS INC., priority 2020, published 2023)
